From patent US12419858B2, “Salt of terphenyl compound” (Taiho Pharmaceutical Co., Ltd., priority 2019, dated 2025)

Legend:
in vivo = experiment: in vivo
Method: Each drug was administered to the animal at a dose of 32 mg/5 mL/kg.

[1] = Moisture absorption/desorption test; conditions: 25° C.; for hygroscopicity / moisture absorption-desorption behaviour (in words): 5% RH to 95% RH and back; for weight change at maximum (moisture absorption/desorption): relative humidity from 5 to 95%
Method: Moisture absorption/desorption test was carried out on the following test conditions. A dedicated quartz holder was filled with about 10 mg of sample, and a weight of the sample at each humidity was measured and recorded in a continuous manner under the following conditions.

[2] = Solid stability test (accelerated test); conditions: for Purity, variation (Y) − (X) / Total mass of analogous substance, variation (Y) − (X): 4 weeks at 60° C. sealed versus before storage; for solid stability (in words): 4 weeks at 60° C.; for solid stability (in words) / Purity, 4 weeks after storage at 60° C. on sealed condition (Y) / Total mass of analogous substance, 4 weeks after storage at 60° C. on sealed condition (Y): sealed; for Purity, 4 weeks after storage at 60° C. on sealed condition (Y) / Total mass of analogous substance, 4 weeks after storage at 60° C. on sealed condition (Y) / Purity, before storage (X) / Total mass of analogous substance, before storage (X): HPLC; for Purity, 4 weeks after storage at 60° C. on sealed condition (Y) / Total mass of analogous substance, 4 weeks after storage at 60° C. on sealed condition (Y): 4 weeks at 60° C./ambient humidity
Method: Mass of analogous substance in the sample solution was measured by HPLC analysis.

| SMILES | Cmax (in vivo; rat, in vivo, 32 mg/kg) | Tmax (in vivo; rat, in vivo, 32 mg/kg) | hygroscopicity / moisture absorption-desorption behaviour (in words) [1] | hygroscopicity / moisture absorption-desorption behaviour (in words) ([1]; listed as free form) | weight change at maximum (moisture absorption/desorption) [1] | Purity, variation (Y) − (X) [2] | Total mass of analogous substance, variation (Y) − (X) [2] | solid stability (in words) [2] | Purity, 4 weeks after storage at 60° C. on sealed condition (Y) [2] | Total mass of analogous substance, 4 weeks after storage at 60° C. on sealed condition (Y) [2] | Purity, before storage (X) [2] | Total mass of analogous substance, before storage (X) [2] | AUC (in vivo; rats, dose of 32 mg/5 mL/kg) | Cmax (in vivo; rats, dose of 32 mg/5 mL/kg) | Tmax (in vivo; rats, dose of 32 mg/5 mL/kg) | solid stability (in words) ([2]; listed as benzoate) |
| --- | --- | --- | --- | --- | --- | --- | --- | --- | --- | --- | --- | --- | --- | --- | --- | --- |
| CC(C)(O)Cc1ccc(-c2ccc(C(=O)N3CC[C@H](N)C3)cc2-c2ccc(C#N)c(F)c2)c(F)c1 [free form of Compound A, 4-[5-[(3S)-3-aminopyrrolidine-1-carbonyl]-2-[2-fluoro-4-(2-hydroxy-2-methyl-propyl)phenyl]phenyl]-2-fluoro-benzonitrile] | 2560 nM | 4 h | had the characteristic of channel hydrate | characteristic of hygroscopicity | about +5.6 % w/w | −0.37% | +0.37% | poor solid stability | 98.15% | 1.85% | 98.52% | 1.48% | – | – | – | – |
| C/C=C/C=C/C(=O)O.CC(C)(O)Cc1ccc(-c2ccc(C(=O)N3CC[C@H](N)C3)cc2-c2ccc(C#N)c(F)c2)c(F)c1 [sorbic acid salt of Compound A, sorbic acid salt of 4-[5-[(3S)-3-aminopyrrolidine-1-carbonyl]-2-[2-fluoro-4-(2-hydroxy-2-methyl-propyl)phenyl]phenyl]-2-fluoro-benzonitrile] | – | – | less adsorptive and/or disorptive of moisture | – | +1.9 % w/w | −0.64% | +0.64% | stable | 97.99% | 2.01% | 98.63% | 1.37% | 11.64 µM·h | 2030 nM | 2.3 h | – |
| CC(C)(O)Cc1ccc(-c2ccc(C(=O)N3CC[C@H](N)C3)cc2-c2ccc(C#N)c(F)c2)c(F)c1.O=C(O)c1ccccc1 [benzoic acid salt of Compound A, benzoic acid salt of 4-[5-[(3S)-3-aminopyrrolidine-1-carbonyl]-2-[2-fluoro-4-(2-hydroxy-2-methyl-propyl)phenyl]phenyl]-2-fluoro-benzonitrile] | – | – | less adsorptive and/or disorptive of moisture | – | +0.7 % w/w | +0.13% | −0.13% | almost no analogous substance was generated | 98.06% | 1.94% | 97.93% | 2.07% | – | 2680 nM | 2.7 h | stable |
